Results: patent US11384371B2, “Hydroxylation of branched aliphatic or aromatic substrates employing the amycolatopsis lurida cytochrome P450” (HYPHA DISCOVERY LIMITED, priority 2016, dated 2022)

Tests used:
P450aluC09 [1] = assay: Whole-cell biocatalysis (hydroxylation) by recombinant E. coli expressing P450aluC09 with redox partners; type: cell-based, Amycolatopsis lurida
Description: The recombinant expression strains E. coli BL21 Star (DE3) pLysS with pQR368bb-aluC09-aluF03 and E. coli BL21 Star (DE3) pLysS with p3C.1-AluC09-AluF03 were cultured in Terrific Broth media as in Example 5 and gene expression was induced by adding IPTG to reach the final concentration of 1 mM. The culture was supplemented with FeSO4 and 5′-aminolevulinic acid as in Example 5.
(§1) After four hours of incubation at 27° C. and 200 rpm, 2.5 mL of induced culture was dosed with 10 μL of either bosentan or diclofenac (25 mg/mL each) in a 24-well block (Enzyscreen). The whole-cell biocatalysis reaction was allowed to further incubate for 24 hours at 30° C. and 300 rpm. The reaction was stopped with an equal amount of acetonitrile and conversion assessed by UPLC-MS analysis in a similar manner to that described in Example 7.

P450aluC09 [2] = assay: Cell-free hydroxylase activity of lyophilised recombinant P450aluC09-ferredoxinaluF03-ferredoxin reductaseSCF15A, conversion by UPLC-MS; type: biochemical, Amycolatopsis lurida; settings: 16-20 hours; for hydroxylase activity (conversion to hydroxylated product): 0.1 mg/ml substrate
Description: Lyophilised material of recombinant P450aluC09, ferredoxinaluF03 and ferredoxin reductaseSCF15A was made as described in examples 5 and 6 and suspended in water to a final concentration of 2.9 μM of P450aluC09 and 919 UN of ferredoxin reductaseSCF15A. […] 50 mM potassium phosphate pH 7.4, 5 mM MgCl2, 0.1 mg/ml substrate compound such as bosentan (CarboSynth Ltd, UK), buparvaquone (MedChemtronica, Sweden), BIRB796 (Stratech Scientific Limited, UK), diclofenac (Sigma-Aldrich, UK), epothilone B (LC Laboratories, USA) or ritonavir (TCI, UK), tivantinib (MedChemtronica, Sweden), 2.4 μM of P450AluC09, 767 UN of ferredoxin reductaseSCF15A, 5 mM G6P, 1 mM NADP, 2 UN/ml G6PDH in a final volume of 100 μL. After 16-20 hours, reactions were extracted with an equal volume of acetonitrile, centrifuged to remove precipitated proteins and conversion assessed by UPLC-MS analysis.
The method in Example 7 was followed except for the buffer exchange section. Four different buffers were chosen: a) 50 mM Acetate pH 5, 100 mM NaCl, 5 mM MgCl2; b) 50 mM potassium phosphate pH7.5, 5 mM MgCl2; c) 50 mM Tris pH 8, 100 mM NaCl, 5 mM MgCl2; d) 50 mM Piperidine pH11, 100 mM NaCl, 5 mM MgCl2. For each buffer condition 1.5 ml of resuspended lyophilised crude extract was exchanged using Vivaspin 20K cut off by performing 3 cycles of concentration and then dilution of the material with the new buffer. Exchanging in 50 mM potassium phosphate pH7.5, 5 mM MgCl2, the usual buffer for preparing and assessment of the enzyme preparations, provided the control for the robustness of the material during the buffer exchange process. […] Of particular note is the activity of this recombinant enzyme at such elevated pH values e.g., pH value of 11. […] Other advantages of catalysis at higher pH are the ability to directly utilise the product from a prior step resulting in such products, such as chemical synthesis, base-catalysed hydrolysis of a feedstock, or reaction product from another enzyme where increasing pH has been used to stop that reaction

[3] = tested on: P450aluC09 fused in-frame with the reductase domain of P450BM3; assay: Whole-cell biocatalysis by E. coli expressing P450aluC09 fused with the reductase domain of P450BM3; type: cell-based, Amycolatopsis lurida / Bacillus megaterium; settings: pET21a-AluC09_BM3, E. coli BL21 Star (DE3) pLysS
Description: as §1
The P450aluC09 was engineered to fuse in-frame to the reductase domain of P450BM3 from Bacillus megaterium in a similar manner described in Scheps et al. Microb Biotechnol. 2013; 6(6):694-707.
Whole-cell hydroxylating activity of E. coli BL21 Star (DE3) pLysS with either pQR368bb-aluC09-aluF03 or pET21a-AluC09_BM3 plasmid were compared against the substrates bosentan and diclofenac in a similar manner described in Example 10.

P450aluC09 [4] = assay: Whole-cell biocatalysis (hydroxylation) by recombinant E. coli expressing P450aluC09 with redox partners; type: cell-based, Amycolatopsis lurida; remark: listed apart in the source
[5] = Ampicillin resistant strain (pQR368bb-aluC09-aluF03), E. coli BL21 Star (DE3) pLysS
[6] = High copy number strain (p3C.1-AluC09-AluF03), E. coli BL21 Star (DE3) pLysS, 24 hours 30° C.
[7] = Medium copy number strain (pQR368bb-aluC09-aluF03), E. coli BL21 Star (DE3) pLysS, 24 hours 30° C.
[8] = Native ferredoxinaluF03 (p3C.1-AluC09-AluF03), E. coli BL21 Star (DE3) pLysS
[9] = ferredoxinaluF03 and ferredoxin reductaseSCF15A (pQR368bb-aluC09-aluF03), E. coli BL21 Star (DE3) pLysS, Table 7 comparison
[10] = host E. coli BL21 Star (DE3) pLysS, pQR368bb-aluC09-aluF03
[11] = Ferredoxinfd1 from S. griseus 11796 (p3C-AluC09), E. coli BL21 Star (DE3) pLysS
[12] = Kanamycin resistant strain (pHD02-AluC09-AluF03), E. coli BL21 Star (DE3) pLysS
[13] = host E. coli BL21 (DE3) pLysS, pQR368bb-aluC09-aluF03
[14] = host E. coli BL21 (DE3), pQR368bb-aluC09-aluF03
[15] = host E. coli BL21 Star (DE3), pQR368bb-aluC09-aluF03
[16] = pH values of 7.5 and above (pH 8-11)

| SMILES | % yield of parent-derived products (P450aluC09 [1]; [5]) | % yield of parent-derived products (P450aluC09 [1]; [6]) | % yield of parent-derived products (P450aluC09 [1]; [7]) | % yield of parent-derived products (P450aluC09 [1]; [8]) | % yield of parent-derived products (P450aluC09 [1]; [9]) | % yield of parent-derived products (P450aluC09 [1]; [10]) | hydroxylase activity (conversion to hydroxylated product) (P450aluC09 [2]; 10° C.) | hydroxylase activity (conversion to hydroxylated product) (P450aluC09 [2]; 22° C.) | hydroxylase activity (conversion to hydroxylated product) (P450aluC09 [2]; 27° C. (standard condition)) | hydroxylase activity (conversion to hydroxylated product) (P450aluC09 [2]; 37° C.) | % yield of parent-derived products [3] | % yield of parent-derived products (P450aluC09 [4]; [11]) | % yield of parent-derived products (P450aluC09 [4]; [12]) | % yield of parent-derived products (P450aluC09 [4]; [13]) | % yield of parent-derived products (P450aluC09 [4]; [14]) | % yield of parent-derived products (P450aluC09 [4]; [15]) | hydroxylase activity on the substrate at reaction pH (P450aluC09 [2]; pH5 (50 mM Acetate)) | hydroxylase activity on the substrate at reaction pH (P450aluC09 [2]; [16]) | other results |
| --- | --- | --- | --- | --- | --- | --- | --- | --- | --- | --- | --- | --- | --- | --- | --- | --- | --- | --- | --- |
| O=C(O)Cc1ccccc1Nc1c(Cl)cc(O)cc1Cl [4′-HO-Diclofenac, 4′-hydroxydiclofenac] | 7.5% | 8.7% | 27.4% | 60.3% | 46.0% | 7.5% | 14% | 16% | 21% | 13% | 4.7% | 11.5% | 6.0% | 11.3% | >1% | 1.5% |  |  |  |
| O=C(O)Cc1cc(O)ccc1Nc1c(Cl)cccc1Cl [5-HO-Diclofenac, 5-hydroxydiclofenac] | 35.2% | 23.8% | 60.3% | 23.8% | 12.4% | 35.2% | 17% | 14% | 12% | 1% | <1% | 4.2% | 48.1% | 45.1% | 10.3% | 6.5% |  |  |  |
| COc1ccccc1Oc1c(NS(=O)(=O)c2ccc(C(C)(C)CO)cc2)nc(-c2ncccn2)nc1OCCO [HO-Bosentan] | 26.6% | 18.2% | 52.6% | 52.6% | 29.5% | 26.6% | 91% | 64% | 86% | 33% | 9.3% | 6.3% | 41.6% | 34.1% | 13.6% | 9.1% |  |  | hydroxylase activity (conversion to hydroxylated product) (P450aluC09 [2]; 45° C.): 19%; % yield of parent-derived products (P450aluC09 [4]; Ferredoxin reductasecamA and ferredoxincamB from P. putida (pHD02-AluC09-PdR-PdX), E. coli BL21 (DE3)): 21.2%; % yield of parent-derived products (P450aluC09 [4]; ferredoxinaluF03 and ferredoxin reductaseSCF15A (pHD02-AluC09-AluF03), E. coli BL21 (DE3)): 27.4% |
| COc1ccccc1Oc1c(NS(=O)(=O)c2ccc(C(C)(C)C)cc2)nc(-c2ncccn2)nc1OCCO [bosentan, reference compound] |  |  |  |  |  |  |  |  |  |  |  |  |  |  |  |  | only barely detectable | remain |  |
| O=C(O)Cc1ccccc1Nc1c(Cl)cccc1Cl [diclofenac, reference compound] |  |  |  |  |  |  |  |  |  |  |  |  |  |  |  |  | only barely detectable | remain |  |
| CC(C)[C@H](NC(=O)N(C)Cc1csc(C(C)(C)O)n1)C(=O)N[C@@H](Cc1ccccc1)C[C@H](O)[C@H](Cc1ccccc1)NC(=O)OCc1cncs1 [ε-HO-Ritonavir, ε-HO—N-methylisopropylthiazoloylmethyl-ritonavir] |  |  |  |  |  |  | 36% | 36% | 34% | 19% |  |  |  |  |  |  |  |  |  |
